Experimental data published in publication PMC3031908 (Bioorganic & medicinal chemistry, 2008).
pIC50: −log10 of the molar value.

What was measured:
[1] = biological target: sodium channel site 2 binding site (neuronal voltage-gated sodium channel); details: −pIC50 = −log IC50 (IC50 in μM); training set; ref literature reference; cited from earlier work
[2] = test system: sodium channel site 2 binding site (neuronal voltage-gated sodium channel); assay: [3H]-BTX-B binding; parameters: species or system rat; details: for pIC50: read-out: observed (actual) IC50, [3H]-BTX; for −pIC50 Obsd: test set, −log IC50 (IC50 in μM)
[3] = biological target: human Nav1.2 (Homo sapiens, UniProt Q99250); type: cell-based; details: HEK cells
Chain of human Nav1.2 (Q99250 whole entry): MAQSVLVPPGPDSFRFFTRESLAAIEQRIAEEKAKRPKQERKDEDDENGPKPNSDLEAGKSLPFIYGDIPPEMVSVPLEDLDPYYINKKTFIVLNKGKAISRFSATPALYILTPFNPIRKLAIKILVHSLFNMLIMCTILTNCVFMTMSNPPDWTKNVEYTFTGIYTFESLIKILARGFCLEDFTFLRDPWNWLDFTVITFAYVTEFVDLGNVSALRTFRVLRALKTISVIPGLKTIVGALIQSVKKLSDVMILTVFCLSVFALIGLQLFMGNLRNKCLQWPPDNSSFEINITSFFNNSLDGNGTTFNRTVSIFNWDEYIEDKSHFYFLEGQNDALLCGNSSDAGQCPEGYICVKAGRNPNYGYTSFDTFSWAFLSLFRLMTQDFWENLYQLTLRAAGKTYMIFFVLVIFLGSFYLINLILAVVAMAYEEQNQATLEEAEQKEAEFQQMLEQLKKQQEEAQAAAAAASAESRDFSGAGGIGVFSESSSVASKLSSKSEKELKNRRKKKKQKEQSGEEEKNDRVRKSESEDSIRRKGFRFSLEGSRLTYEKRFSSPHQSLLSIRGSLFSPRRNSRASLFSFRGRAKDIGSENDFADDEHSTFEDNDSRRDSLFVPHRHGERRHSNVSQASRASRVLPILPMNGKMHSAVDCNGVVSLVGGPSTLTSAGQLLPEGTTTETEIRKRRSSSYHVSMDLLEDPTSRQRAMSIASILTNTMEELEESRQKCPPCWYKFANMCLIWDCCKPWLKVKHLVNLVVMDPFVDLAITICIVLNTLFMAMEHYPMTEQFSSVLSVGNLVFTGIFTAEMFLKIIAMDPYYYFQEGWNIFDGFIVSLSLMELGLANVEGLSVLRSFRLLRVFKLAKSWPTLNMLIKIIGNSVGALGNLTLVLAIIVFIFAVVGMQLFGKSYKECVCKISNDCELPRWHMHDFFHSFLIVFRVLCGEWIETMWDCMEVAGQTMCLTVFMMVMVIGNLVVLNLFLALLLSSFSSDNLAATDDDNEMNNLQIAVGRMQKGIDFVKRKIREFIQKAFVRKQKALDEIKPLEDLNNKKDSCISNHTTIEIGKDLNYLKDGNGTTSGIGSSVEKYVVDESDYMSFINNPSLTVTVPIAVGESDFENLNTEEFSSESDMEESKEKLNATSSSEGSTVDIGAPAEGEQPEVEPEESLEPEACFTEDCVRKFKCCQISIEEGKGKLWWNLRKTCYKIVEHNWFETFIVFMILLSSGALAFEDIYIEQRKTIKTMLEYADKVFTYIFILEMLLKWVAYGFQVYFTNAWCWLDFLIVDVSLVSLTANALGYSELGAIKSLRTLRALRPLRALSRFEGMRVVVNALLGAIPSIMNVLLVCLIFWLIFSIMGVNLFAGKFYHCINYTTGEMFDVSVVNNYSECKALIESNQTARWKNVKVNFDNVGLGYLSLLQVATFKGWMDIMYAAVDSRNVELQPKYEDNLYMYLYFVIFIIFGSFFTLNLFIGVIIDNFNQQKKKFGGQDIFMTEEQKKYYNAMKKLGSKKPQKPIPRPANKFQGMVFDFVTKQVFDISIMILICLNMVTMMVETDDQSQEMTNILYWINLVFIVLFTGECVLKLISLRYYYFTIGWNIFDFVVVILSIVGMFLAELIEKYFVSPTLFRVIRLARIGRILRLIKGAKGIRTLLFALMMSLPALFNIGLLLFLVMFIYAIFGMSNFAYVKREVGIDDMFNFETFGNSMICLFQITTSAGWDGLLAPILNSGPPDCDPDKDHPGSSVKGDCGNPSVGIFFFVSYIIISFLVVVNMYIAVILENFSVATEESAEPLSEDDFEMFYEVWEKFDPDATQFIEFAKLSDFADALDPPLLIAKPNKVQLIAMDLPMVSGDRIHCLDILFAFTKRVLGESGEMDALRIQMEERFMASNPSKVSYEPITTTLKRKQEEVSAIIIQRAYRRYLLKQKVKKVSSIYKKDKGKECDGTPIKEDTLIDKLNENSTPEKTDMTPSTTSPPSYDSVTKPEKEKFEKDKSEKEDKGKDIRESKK

Row | SMILES | Final model, −pIC50 Obsd [1] | also measured
1 | CCCC1(c2ccccc2)NC(=O)NC1=O (stereo not drawn) [Compound 1] | −2.21 | 
2 | CCCCC1(c2ccccc2)NC(=O)NC1=O (stereo not drawn) [Compound 2] | −2.01 | 
3 | CCCCCC1(c2ccccc2)NC(=O)N(C)C1=O (stereo not drawn) [Compound 4] | −1.59 | 
4 | CCCCCCC1(c2ccccc2)NC(=O)NC1=O (stereo not drawn) [Compound 5] | −1.11 | 
5 | CCCCCCCC1(c2ccccc2)NC(=O)NC1=O (stereo not drawn) [Compound 6] | −0.70 | 
6 | CCCCCCCCC1(c2ccccc2)NC(=O)NC1=O (stereo not drawn) [Compound 7] | −0.70 | 
7 | CCN1C(=O)NC(=O)C1(C)c1ccccc1 (stereo not drawn) [Compound 8] | −2.86 | 
8 | O=C1NC(=O)C2(CCc3ccccc32)N1 (stereo not drawn) [Compound 9] | −3.32 | 
9 | O=C1NC(=O)C2(CCCc3ccccc32)N1 (stereo not drawn) [Compound 10] | −2.93 | 
10 | O=C1NC(=O)C2(CCCCc3ccccc32)N1 (stereo not drawn) [Compound 11] | −2.40 | 
11 | O=C1NC(=O)C2(CCCCCc3ccccc32)N1 (stereo not drawn) [Compound 12] | −2.40 | 
12 | CC12C(=O)NC(=O)N1CCc1ccccc12 (stereo not drawn) [Compound 13] | −2.40 | 
13 | CCCCC1(c2ccccc2C)NC(=O)NC1=O (stereo not drawn) [Compound 14] | −2.35 | 
14 | CCCCC1(c2cccc(C)c2)NC(=O)NC1=O (stereo not drawn) [Compound 15] | −1.76 | 
15 | CCCCC1(c2ccc(C)cc2)NC(=O)NC1=O (stereo not drawn) [Compound 16] | −1.98 | 
16 | O=C1NC(=O)C(c2ccccc2)(C2CCCCC2)N1 (stereo not drawn) [Compound 17] | −1.76 | 
17 | O=C1C(c2ccccc2)N2CCCCN1C2=O (stereo not drawn) [Compound 18] | −2.85 | 

Row | SMILES | Final model, −pIC50 Obsd [1] | also measured
18 | O=C1C(c2ccccc2)N2CCCCCN1C2=O (stereo not drawn) [Compound 19] | −2.63 | 
19 | CCCCCCCC(O)(C(N)=O)c1ccccc1 (stereo not drawn) [Compound 20] | −0.95 | 
20 | CCOC(=O)c1ccc(N)cc1 [Compound 21, benzocaine] | −2.96 | 
21 | COC(=O)[C@H]1[C@@H](OC(=O)c2ccccc2)C[C@@H]2CC[C@H]1N2C [Compound 24] | −1.69 | 
22 | CC(CNC1CCCCC1)OC(=O)c1ccccc1 (stereo not drawn) [Compound 27] | −0.85 | 
23 | CCOc1ccc(C(=O)OCCN(CC)CC)cc1 [Compound 29] | −1.38 | 
24 | CC1CCCCN1CCCOC(=O)c1ccccc1 (stereo not drawn) [Compound 30, piperocaine] | −1.11 | 
25 | CCCNC(C)C(=O)Nc1ccccc1C (stereo not drawn) [Compound 31] | −1.73 | 
26 | CCN(CC)CCOC(=O)c1ccc(N)cc1 [Compound 32] | −2.04 | 
27 | CCCOc1ccc(C(=O)OCCN(CC)CC)cc1N [Compound 33] | −0.28 | 
28 | CCCOc1cc(N)ccc1C(=O)OCCN(CC)CC.Cl [Compound 34] | −1.38 | 
29 | O=C1NC(=O)C(c2ccccc2)(c2ccccc2)N1 [Compound 36, phenytoin] | −1.60 | 
30 | CCCCCCCC(O)(C(N)=O)c1cc(C)c(NC(=O)CN(CC)CC)c(C)c1 (stereo not drawn) [Compound 37, 2-[4-(2-Diethylamino-acetylamino)-3,5-dimethylphenyl]-2-hydroxy-nonanoic acid amide] |  | increase in inhibition on heptyl for phenyl substitution at R1 ([2]; 37 vs 39 (83% vs 16%) at 40 μM): greater than 5 fold; pIC50 [2]: 5.22; −pIC50 Obsd [2]: -0.78; reversibility of block on washout [3]: partially reversible upon washout
31 | CCN(CC)CC(=O)Nc1ccc(C2(c3ccccc3)NC(=O)NC2=O)cc1 (stereo not drawn) [Compound 41, 2-Diethylamino-N-[4-(2,5-dioxo-4-phenyl-imidazolidin-4-yl)-phenyl]-acetamide] |  | pIC50 [2]: ~4.40; −pIC50 Obsd [2]: -1.60
32 | CCN(CC)CC(=O)Nc1c(C)cc(C2(c3ccccc3)NC(=O)NC2=O)cc1C (stereo not drawn) [Compound 42, 2-Diethylamino-N-[4-(2,5-dioxo-4-phenyl-imidazolidin-4-yl)-2,6-dimethyl-phenyl]-acetamide] |  | pIC50 [2]: ~4.40; −pIC50 Obsd [2]: -1.60
33 | CCCCCCCC1(c2cc(C)c(NC(=O)CN(CC)CC)c(C)c2)NC(=O)NC1=O (stereo not drawn) [Compound 44, 2-Diethylamino-N-[4-(4-heptyl-2,5-dioxo-imidazolidin-4-yl)-2,6-dimethyl-phenyl]-acetamide] |  | pIC50 [2]: 4.87; −pIC50 Obsd [2]: -1.13
